According to patent publication US4268630A, “Microbiological production of ketones from C3 -C6 alkanes” (priority 1979, dated 1981):
Read-outs that look alike come from different tables or passages of the source.

How the values were obtained:
[1] = test system: cell-free secondary alcohol dehydrogenase (SADH) system; assay: Cofactor requirement of cell-free soluble extracts oxidizing 2-butanol; assay type: biochemical
Protocol: To prepare the cell-free secondary alcohol dehydrogenase (SADH) system, the washed cells were disrupted with a Wave Energy Ultrasonic Oscillator, Model W201 (Wave Energy System, Inc., Newtown, Pa.) and centrifuged at 20,000× g. for 30 minutes. […] The enzyme activity was measured with a fluorescence spectrophotometer (Perkin Elmer, Model MPF 44A) by following the formation of reduced NAD (EX 340 nm, Em 460 nm). The formation of reduced NAD was also followed with an absorption spectrophotometer at 340 nm. The assay system (3 ml.) contained: potassium phosphate buffer pH 7.0; 150 μmol.; NAD 1 μmol.; a given amount of enzyme preparation; and secondary alcohol 10 μmol. The reaction was started by the addition of substrate. One unit of enzyme activity represents the reduction of one μmole NAD per minute. Protein concentrations were determined by the Lowry method (J. Biol. Chem., 193: 255-275 (1951)).

[2] = test system: secondary alcohol dehydrogenase; assay: Activity of purified yeast-derived secondary alcohol dehydrogenase; assay type: biochemical, Pichia sp. NRRL Y-11,328; conditions: purified enzyme
[3] = test system: cell-free extracts of strain ATCC 21439; conditions: fluorescence spectrophotometry
Protocol: The reaction mixtures 3 ml (1.0 mg protein) were incubated at 30°
C. for 10 min. (exp. 1) and for 20 min. (exp. 2) in the presence of 1.0
^(a) Determined gas chromatographically.
^(b) Determined fluorescence spectrophotometrically. Endogenous
consumption of NAD was corrected.

[4] = test system: Methylobacter capsulatus Y (NRRL B-11,201); assay: Oxidation of n-alkanes to methyl ketones by resting cell suspension; assay type: cell-based; conditions: cell suspension grown on methane
Protocol: (§1) The pH of the nutrient medium was adjusted to 7.0 by the addition of acid or base and 50 ml. samples of the nutrient medium were charged into a plurality of 300 ml. shaker flasks. […] The isolates had been maintained on methanol (0.4% V/V) agar plates or on agar plates under an atmosphere of methane and air having a 1:1 V/V gas ratio which had been transferred every two weeks. For growth on methanol, the medium was supplemented with 0.4% methanol. For growth on methane, the gaseous phase of the inoculated flasks was replaced with a gas mixture comprised on methane and air having a ratio of 1:1 on a V/V basis. The inoculated flasks were sealed air-tight and were incubated on a rotary shaker of orbital radius 2.5 cm. at 250 rpm and at 30° C. for two days until turbidity in the medium had developed. The cells were harvested by centrifugation at 10,000×g. at 4° C. for 30 minutes. The cell pellet was washed twice with a 0.05 M phosphate buffer at a pH of 7.0 (containing 0.02 M MgCl2). The washed cells were then suspended in a 0.05 M phosphate buffer at pH 7.0.
(§2) A 0.5 ml. sample of each washed cell suspension (2 mg. cells) was put into 10 ml. vials at 4° C. which were sealed with a rubber cap. The gaseous phase of the vials was removed with vacuum and then was replaced with a gas mixture of the substrate reactant (i.e., alkane or secondary alcohol) and oxygen at a 1:1 V/V ratio. (In the case of a liquid substrate, i.e., secondary alcohol, 10 μl of the substrate was put in the 10 ml. vials). The vials were then incubated at 30° C. on a rotary shaker at 300 rpm. Samples of product (1-3 μl) were withdrawn periodically with a microsyringe and the products were analyzed by gas chromatography (ionization flame detector column).

[5] = test system: Methylobacterium organophilum XX; assay: as above; assay type: cell-based; conditions: cell suspension grown on methane
Protocol: as §1, §2

[6] = test system: Methylocystis parvus OBBP (NRRL B-11,198); assay: as above; assay type: cell-based; conditions: cell suspension grown on methane
Protocol: as §1, §2

[7] = test system: Methylomonas albus BG8 (NRRL B-11,200); assay: as above; assay type: cell-based; conditions: cell suspension grown on methane
Protocol: as §1, §2

[8] = test system: Methylomonas methanica SI (NRRL B-11,199); assay: as above; assay type: cell-based; conditions: cell suspension grown on methane
Protocol: as §1, §2

[9] = test system: Methylosinus sporium 5 (NRRL B-11,197); assay: as above; assay type: cell-based; conditions: cell suspension grown on methane
Protocol: as §1, §2

[10] = test system: Methylosinus trichosporium OB3b (NRRL B-11,196); assay: as above; assay type: cell-based; conditions: cell suspension grown on methane
Protocol: as §1, §2

[11] = test system: Methylococcus capsulatus Texas (ATCC 19069); assay: as above; assay type: cell-based; conditions: cell suspension grown on methane
Protocol: The pH of the nutrient medium was adjusted to 7.0 by the addition of acid or base and 50 ml. samples of the nutrient medium were charged into a plurality of 300 ml. shaker flasks. The shaker flasks were inoculated with an inoculating loop of cells from an agar plate containing homogeneous colonies of the microorganisms on the plate (the purity of the isolates was confirmed by microscopic examination). The isolates had been maintained on methanol (0.4% V/V) agar plates or on agar plates under an atmosphere of methane and air having a 1:1 V/V gas ratio which had been transferred every two weeks. For growth on methanol, the medium was supplemented with 0.4% methanol. For growth on methane, the gaseous phase of the inoculated flasks was replaced with a gas mixture comprised on methane and air having a ratio of 1:1 on a V/V basis. The inoculated flasks were sealed air-tight and were incubated on a rotary shaker of orbital radius 2.5 cm. at 250 rpm and at 30° C. for two days until turbidity in the medium had developed. The cells were harvested by centrifugation at 10,000×g. at 4° C. for 30 minutes. The cell pellet was washed twice with a 0.05 M phosphate buffer at a pH of 7.0 (containing 0.02 M MgCl2). The washed cells were then suspended in a 0.05 M phosphate buffer at pH 7.0.
as §2, with “The vials were then incubated at 30° C. on a rotary shaker at 300 rpm.” left out

[12] = test system: Methylobacter capsulatus (Y, NRRL-B-11,201); assay: Conversion of n-alkanes to secondary alcohols by cell suspensions; assay type: cell-based; conditions: growth substrate Methane
Description: (§3) Both cell suspensions (particulate fraction) and cell-free particulate fraction of methane-grown methylotroph microorganisms are capable of catalyzing the conversion of C3 -C6 n-alkanes to the corresponding alcohols including secondary alcohols. The conditions for preparing the cell suspensions or the cell-free particulate fractions from methane-grown methylotroph microorganisms is the same as described above. The cell-free particulate fraction requires the presence of oxygen and NADH as an electron donor. […] Tables XVI and XVII show the conversion of C3 -C6 n-alkanes to the corresponding secondary alcohols using cell suspensions and cell-free particulate fractions, respectively, of methane-grown methylotroph microorganisms.

[13] = test system: Methylobacterium sp. (CRL-26, NRRL-B-11,208); assay: as above; assay type: cell-based; conditions: growth substrate Methane
Description: as §3

[14] = test system: Methylococcus capsulatus (Texas, ATCC 19,069); assay: as above; assay type: cell-based; conditions: growth substrate Methane
Description: as §3

[15] = test system: Methylomonas sp. (CRL-17, NRRL-B-11,209); assay: as above; assay type: cell-based; conditions: growth substrate Methane
Description: as §3

[16] = test system: Methylosinus sp. (CRL-15, NRRL-B-11,202); assay: as above; assay type: cell-based; conditions: growth substrate Methane
Description: as §3

[17] = test system: Methylosinus trichosporium (OB3b, NRRL-B-11,196); assay: as above; assay type: cell-based; conditions: growth substrate Methane
Description: as §3

[18] = test system: particulate P(40) fraction of Methylobacterium sp. (CRL-26, NRRL-B-11,222); assay: Hydroxylation of n-alkanes to secondary alcohols by particulate P(40) fraction; assay type: biochemical
Description: as §3
(§4) ^(a) Particulate P(40) fraction was prepared as follows:
(§5) Cellsuspensions at 4° C. were disintegrated through a French
(§6) Pressure cell and centrifuged at 4000 × g. for 15 min. to remove
(§7) unbroken bacteria. The supernatant solution was then centrifuged at 40,00
(§8) × g. for 30 min. at 4° C. yielding the particulate P(40) and
(§9) soluble S(40) fractions. The products were identified by gas
(§10) chromatography and cochromatography with authentic standard.

[19] = test system: particulate P(40) fraction of Methylococcus capsulatus (Texas, ATCC 19,069); assay: as above; assay type: biochemical
Description: as §3, §4, §5, §6, §7, §8, §9, §10

[20] = target: particulate P(40) fraction of Methylosinus sp. (CRL-15, NRRL-B-11,202) (Methylosinus trichosporium, UniProt Q50541+Q9KX50+Q9KX51); assay: as above; assay type: biochemical
Sequence of particulate P(40) fraction of Methylosinus sp. (CRL-15, NRRL-B-11,202) (Q9KX50 40-431): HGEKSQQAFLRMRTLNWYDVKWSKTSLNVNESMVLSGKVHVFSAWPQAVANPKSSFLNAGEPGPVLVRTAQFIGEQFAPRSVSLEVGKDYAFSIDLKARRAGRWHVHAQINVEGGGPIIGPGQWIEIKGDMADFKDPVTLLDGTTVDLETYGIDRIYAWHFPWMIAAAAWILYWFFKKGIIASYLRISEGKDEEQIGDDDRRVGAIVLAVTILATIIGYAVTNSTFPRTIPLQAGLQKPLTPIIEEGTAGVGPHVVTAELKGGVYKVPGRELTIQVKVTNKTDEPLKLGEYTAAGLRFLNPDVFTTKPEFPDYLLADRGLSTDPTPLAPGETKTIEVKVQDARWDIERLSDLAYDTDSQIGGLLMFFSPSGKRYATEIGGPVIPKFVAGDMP
Sequence of particulate P(40) fraction of Methylosinus sp. (CRL-15, NRRL-B-11,202) (Q50541 1-252): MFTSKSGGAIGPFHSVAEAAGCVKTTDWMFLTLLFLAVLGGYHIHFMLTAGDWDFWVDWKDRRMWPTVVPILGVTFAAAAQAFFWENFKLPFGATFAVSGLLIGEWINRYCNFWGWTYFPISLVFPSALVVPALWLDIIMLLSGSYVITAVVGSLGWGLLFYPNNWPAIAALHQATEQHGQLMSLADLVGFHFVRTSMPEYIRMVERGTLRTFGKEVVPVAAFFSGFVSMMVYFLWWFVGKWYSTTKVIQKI
Sequence of particulate P(40) fraction of Methylosinus sp. (CRL-15, NRRL-B-11,202) (Q9KX51 1-256): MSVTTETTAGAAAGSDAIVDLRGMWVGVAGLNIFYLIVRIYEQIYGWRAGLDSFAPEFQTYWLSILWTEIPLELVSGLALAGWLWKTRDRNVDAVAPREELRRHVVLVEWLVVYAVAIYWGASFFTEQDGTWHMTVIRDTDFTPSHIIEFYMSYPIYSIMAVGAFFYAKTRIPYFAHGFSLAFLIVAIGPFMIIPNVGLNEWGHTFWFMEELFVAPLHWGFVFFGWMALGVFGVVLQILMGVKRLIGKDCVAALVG
Description: as §3, §4, §5, §6, §7, §8, §9, §10

[21] = test system: particulate P(40) fraction of Methylosinus trichosporium (OB3b, NRRL-B-11,196); assay: as above; assay type: biochemical
Description: as §3, §4, §5, §6, §7, §8, §9, §10

[22] = test system: Methylosinus trichosporium OB3b NRRL B-11,196; assay: Conversion of n-alkanes to oxidation products by cell suspensions; assay type: cell-based; conditions: methane-grown cell suspension, pH 7.0
Protocol: (§11) ^(a) Cell-suspensions of methanegrown methylotroph microorganisms
(§12) indicated in 0.15 M phosphate buffer, pH 7.0 incubated in the alkanes as
(§13) indicated at 3° C. The oxidation products were determined by g.l.c

[23] = test system: Methylococcus capsulatus CRL M1 NRRL B-11,219; assay: as above; assay type: cell-based; conditions: methane-grown cell suspension, pH 7.0
Protocol: as §11, §12, §13

Structure (SMILES): NC(=O)c1ccc[n+]([C@@H]2O[C@H](COP(=O)([O-])OP(=O)(O)OC[C@H]3O[C@@H](n4cnc5c(N)ncnc54)[C@H](O)[C@@H]3O)[C@@H](O)[C@H]2O)c1 [NAD, Nicotinamide adenine dinucleotide]
- effectiveness as cofactor for oxidation of 2-butanol [1]: required
- ability to act as electron acceptor/carrier [2]: required
- NAD Consumed ([3]; Experiment 1: 10 min): 270 nmol
- NAD Consumed ([3]; Experiment 2: 20 min): 540 nmol

Structure (SMILES): CCC [n-Propane, n-propane]
- Conversion Rates, n-alkane to methyl ketone [4]: 1.6 μmoles/hr/mg protein
- Conversion Rates, n-alkane to methyl ketone [5]: 2.8 μmoles/hr/mg protein
- Conversion Rates, n-alkane to methyl ketone [6]: 1.8 μmoles/hr/mg protein
- Conversion Rates, n-alkane to methyl ketone [7]: 2.7 μmoles/hr/mg protein
- Conversion Rates, n-alkane to methyl ketone [8]: 2.5 μmoles/hr/mg protein
- Conversion Rates, n-alkane to methyl ketone [9]: 2.1 μmoles/hr/mg protein
- Conversion Rates, n-alkane to methyl ketone [10]: 1.5 μmoles/hr/mg protein
- Conversion Rates, n-alkane to methyl ketone [11]: 1.2 μmoles/hr/mg protein
- Conversion Rate, n-alkane to secondary alcohol [12]: 0.20 μmoles/hr/^5 mg. protein
- Conversion Rate, n-alkane to secondary alcohol [13]: 1.4 μmoles/hr/^5 mg. protein
- Conversion Rate, n-alkane to secondary alcohol [14]: 1.1 μmoles/hr/^5 mg. protein
- Conversion Rate, n-alkane to secondary alcohol [15]: 1.6 μmoles/hr/^5 mg. protein
- Conversion Rate, n-alkane to secondary alcohol [16]: 2.1 μmoles/hr/^5 mg. protein
- Conversion Rate, n-alkane to secondary alcohol [17]: 2.5 μmoles/hr/^5 mg. protein
- Conversion Rate, n-alkane to secondary alcohol [18]: 1.0 μmoles/hr/2.0mg. of protein
- Conversion Rate, n-alkane to secondary alcohol [19]: 1.2 μmoles/hr/2.0mg. of protein
- Conversion Rate, n-alkane to secondary alcohol [20]: 1.5 μmoles/hr/2.0mg. of protein
- Conversion Rate, n-alkane to secondary alcohol [21]: 1.32 μmoles/hr/2.0mg. of protein
- Conversion Rate to product 1-Propanol [22]: 0.4 μmoles/hr./mg./protein
- Conversion Rate to product 2-Propanol [22]: 0.6 μmoles/hr./mg./protein
- Conversion Rate to product Acetone [22]: 0.2 μmoles/hr./mg./protein
- Conversion Rate to product Propanol [22]: 0.1 μmoles/hr./mg./protein
- Conversion Rate to product 1-Propanol [23]: 0.5 μmoles/hr./mg./protein
- Conversion Rate to product 2-Propanol [23]: 0.7 μmoles/hr./mg./protein
- Conversion Rate to product Acetone [23]: 0.3 μmoles/hr./mg./protein
- Conversion Rate to product Propanol [23]: 0.2 μmoles/hr./mg./protein
